According to article PMC3938834, “De Novo Peptide Design and Experimental Validation of Histone Methyltransferase Inhibitors” (PLoS ONE, 2014):
Read-outs that look alike come from different tables or passages of the source. No end group written: not given here.

Experiments:
[1] = target: T1, EZH2 (reconstituted recombinant PRC2 containing full length EZH2, SUZ12, EED, RBAP46/48) (Homo sapiens, UniProt Q15910); assay: radiometric EZH2 HMT enzymatic assay, 384-well Flashplate, 10-point dose titrations; assay type: biochemical
T1 construct: reconstituted recombinant PRC2 (containing full length EZH2, SUZ12, EED, RBAP46/48)
Experimental: Experiments were performed using radiometric EZH2 enzymatic assays prepared individually or in a semi-automated fashion on a 384-well platform. For the experiments shown in Figures 3.A, 3.C, and 3.D, 4 [drawing 50] g of oligonucleosomes was used per reaction. For the experiments shown in Figures 3.C–D, 3 [drawing 51] g of PRC2 complex were added. For all other HMT assays (Figure 4, Figure 5, and Table 2) the following balanced conditions (at Km for cofactor and substrate) were used. […] The putative peptide inhibitors were tested in single point assays and in 10-point dose titrations. The total volume of the reaction mixture was 30 [drawing 55] L. Reactions were incubated for 1 hour at [drawing 56] C. Reactions terminated by the addition of 10 [drawing 57] L, 5× Laemmli Sample Buffer were loaded onto 15% Tri-Glycine-Polyacrylamide gels and resolved by PAGE. Resolved proteins were transferred to PVDF membrane at 65 V for 2 hours. Membranes were stained with CBB, destained, dried, and exposed to imaging plates for 24 hours. Images were detected using an FLA-7000 bioimaging system (Fujifilm). Reactions terminated by the addition of SAH to a final concentration of 850 [drawing 58] M were transferred to a 384-well Flashplate (Perkin Elmer) and incubated for 90 min. Liquids were aspirated and wells washed with 1×60 [drawing 59] L of wash buffer (50 mM Tris, pH 8.5, 200 mM NaCl, 0.01% NP-40). Detection of incorporated radioactivity in Flashplates was carried out using a Topcount instrument (Perkin Elmer). Potential inhibitory peptides were tested in single point assays and in 10-point dose titrations. Mechanism of Action Enzymatic Assays were performed under the same conditions and using the same protocol. However, in the Mechanism of Action Enzymatic assays the assays were performed with varied enzyme, substrate, or cofactor concentration to identify the mechanism of inhibition.
In order to assess the inhibitory capability of the candidate peptides experimentally, HMT enzymatic assays were conducted. These HMT assays assessed the EZH2-dependent transfer of tritiated methyl-groups from the methyl-donor SAM to reconstituted oligonucleosomes (see Methods for details).
(§1) To quantitatively measure the inhibition properties of the designed sequences, peptide dose titrations were performed. The concentration of peptide required to suppress 50% of the enzymatic activity (i.e. half-maximal inhibitory concentration, [drawing 76] ) and the Hill coefficient (measure of cooperativity of binding) were calculated (Table 2).
Understanding the mechanism of action allows us to determine whether the competitive inhibition targeted by the design framework and the input biological constraints has been successful.

[2] = test system: EZH2; details: small molecule inhibitor quoted for reference; cited from earlier work
Experimental: as §1, with “concentration,” for “concentration, [drawing 76]”

T1 sequence (Q15910 whole entry): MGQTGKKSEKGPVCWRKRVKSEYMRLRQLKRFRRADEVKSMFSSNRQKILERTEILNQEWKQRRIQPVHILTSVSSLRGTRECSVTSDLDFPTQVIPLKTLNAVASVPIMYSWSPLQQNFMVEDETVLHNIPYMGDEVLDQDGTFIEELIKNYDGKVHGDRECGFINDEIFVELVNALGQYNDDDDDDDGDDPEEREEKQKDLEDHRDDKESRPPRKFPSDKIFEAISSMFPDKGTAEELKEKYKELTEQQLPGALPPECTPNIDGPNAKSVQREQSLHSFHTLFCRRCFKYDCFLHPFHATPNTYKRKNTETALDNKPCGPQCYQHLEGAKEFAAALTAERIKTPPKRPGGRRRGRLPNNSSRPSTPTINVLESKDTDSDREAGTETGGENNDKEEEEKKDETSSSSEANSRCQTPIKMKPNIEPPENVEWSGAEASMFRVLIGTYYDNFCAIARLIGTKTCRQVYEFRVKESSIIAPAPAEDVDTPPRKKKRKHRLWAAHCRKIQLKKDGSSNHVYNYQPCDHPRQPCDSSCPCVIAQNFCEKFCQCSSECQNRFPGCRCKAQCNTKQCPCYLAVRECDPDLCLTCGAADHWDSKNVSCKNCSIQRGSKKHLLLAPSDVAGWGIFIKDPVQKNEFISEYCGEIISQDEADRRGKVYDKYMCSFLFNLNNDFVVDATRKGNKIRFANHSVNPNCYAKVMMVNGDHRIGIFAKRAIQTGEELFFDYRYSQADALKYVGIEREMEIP
T1 sequence (Q15022 whole entry partner): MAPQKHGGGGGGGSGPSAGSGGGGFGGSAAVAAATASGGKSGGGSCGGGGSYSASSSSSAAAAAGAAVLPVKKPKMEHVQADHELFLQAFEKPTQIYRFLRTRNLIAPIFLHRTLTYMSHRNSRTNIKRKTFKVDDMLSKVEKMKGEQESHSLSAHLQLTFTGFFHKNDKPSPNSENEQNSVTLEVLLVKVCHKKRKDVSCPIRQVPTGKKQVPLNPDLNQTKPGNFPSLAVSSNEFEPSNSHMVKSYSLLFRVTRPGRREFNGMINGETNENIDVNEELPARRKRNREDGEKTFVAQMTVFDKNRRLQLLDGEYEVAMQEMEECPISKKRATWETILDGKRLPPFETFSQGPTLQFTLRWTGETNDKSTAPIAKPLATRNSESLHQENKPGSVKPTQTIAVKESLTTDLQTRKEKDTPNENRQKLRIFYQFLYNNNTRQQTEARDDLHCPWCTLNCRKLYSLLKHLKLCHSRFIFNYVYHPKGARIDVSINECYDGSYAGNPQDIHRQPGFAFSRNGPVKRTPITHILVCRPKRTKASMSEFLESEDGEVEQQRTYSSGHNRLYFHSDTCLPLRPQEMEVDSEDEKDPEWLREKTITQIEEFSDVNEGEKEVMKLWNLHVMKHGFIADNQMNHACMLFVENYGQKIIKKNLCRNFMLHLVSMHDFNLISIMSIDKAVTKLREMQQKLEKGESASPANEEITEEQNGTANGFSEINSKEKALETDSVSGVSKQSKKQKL
T1 sequence (O75530 whole entry partner): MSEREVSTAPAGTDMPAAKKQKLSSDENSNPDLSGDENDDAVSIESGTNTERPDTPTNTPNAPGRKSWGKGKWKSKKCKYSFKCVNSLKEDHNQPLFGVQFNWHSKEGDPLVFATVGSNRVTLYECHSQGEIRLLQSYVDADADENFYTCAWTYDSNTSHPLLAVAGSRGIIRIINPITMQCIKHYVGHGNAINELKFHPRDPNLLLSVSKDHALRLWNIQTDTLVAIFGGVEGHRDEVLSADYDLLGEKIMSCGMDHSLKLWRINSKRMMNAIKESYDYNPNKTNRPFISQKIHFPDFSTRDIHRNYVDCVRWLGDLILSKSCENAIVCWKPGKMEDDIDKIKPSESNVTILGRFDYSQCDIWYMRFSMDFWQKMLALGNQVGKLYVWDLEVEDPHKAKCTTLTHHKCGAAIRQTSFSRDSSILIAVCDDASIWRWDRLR
T1 sequence (Q09028 whole entry partner): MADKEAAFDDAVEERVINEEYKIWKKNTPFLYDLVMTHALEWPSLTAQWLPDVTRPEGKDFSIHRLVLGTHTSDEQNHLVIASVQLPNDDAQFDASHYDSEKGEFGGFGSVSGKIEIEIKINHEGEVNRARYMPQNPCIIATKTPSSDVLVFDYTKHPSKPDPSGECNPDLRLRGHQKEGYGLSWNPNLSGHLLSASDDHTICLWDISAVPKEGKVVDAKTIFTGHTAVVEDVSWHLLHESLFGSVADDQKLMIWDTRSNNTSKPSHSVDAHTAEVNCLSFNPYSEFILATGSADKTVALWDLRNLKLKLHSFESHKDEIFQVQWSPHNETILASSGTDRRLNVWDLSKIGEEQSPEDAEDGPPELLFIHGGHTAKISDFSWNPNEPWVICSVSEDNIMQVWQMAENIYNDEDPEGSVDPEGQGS

Molecule	IC50 ([1]; read-out: IC50) [µM]	also measured
GKAPRKQLASAKKAAATPRTG [SQ010]	54.9 ± 1.26	
GKAPRKQLASKAARAATPKTG [SQ020]		IC50 [1]: 34.2 ± 1.46 µM
CCC(CC)n1ccc2c(C(=O)NCc3c(C)cc(C)[nH]c3=O)cc(C#N)cc21 [EI1]		IC50 [2]: ~0.015 µM
GKAPRKQLANRKWWKNYPRDG [SQ040]	41 ± 1.19	

Further molecules by falling IC50 ([1]; read-out: IC50), results first:

IC50 ([1]; read-out: IC50) [µM]	Molecule	also measured
39.7 ± 1.17	GKAPRKQLARKNWWKNYPRDG [SQ043]	
19.6 ± 1.12	GKAPRKQLAPKAATKNARATS [SQ026]	
13.6 ± 1.24	GKAPRKQLARRKWWFNYPQNG [SQ037]	IC50 ([1]; Figure 5, high throughput radiometric assay, SQ037 versus native and mutated peptides, value printed in the picture without unit, read-out: IC50): 8.05 µM
